Measured values: paper PMC4806491, “The milk-derived fusion peptide, ACFP, suppresses the growth of primary human ovarian cancer cells by regulating apoptotic gene expression and signaling pathways” (BMC Cancer, 2016)
In brackets after ≈: the same amount, converted by molar mass. Where two headings read alike, the source gives them in different places. Positions of bridges follow the written chain, without caps; N, C: chain ends. Residues, ends and D or L forms follow the SMILES beside them.

Experiments:
[1] = test system: primary ovarian cancer cells; format: cell-based, human
Method: Fresh primary ovarian tumor tissues that were assessed and classified as serous ovarian adenocarcinoma (III-IV grade) according to WHO criteria were collected from 53 ovarian cancer patients who underwent initial debulking surgery at the first affiliated hospital of Anhui Medical University between June 2012 and June 2014. All patients had not received adjuvant therapies, such as chemotherapy or radiotherapy, prior to surgery. For comparison, normal ovarian glandular epithelium cells (NOGECs) were cultured from fresh primary normal ovarian tissues harvested from 7 patients with uterine fibromas, which were confirmed as negative for any neoplastic disease by pathological examination. Prior to tissue deposition, all patients signed written consent forms confirming their donation of tissue for research purposes according to the Declaration of Helsinki. This study was approved by the Anhui Medical University Review Board. Tumor or normal ovarian tissues were cut into small 1.0 mm^3 pieces, rinsed two times in phosphate buffered saline (PBS) and digested with 0.25 % trypsin in a sterile centrifuge tube at 37 °C for 30 min. To obtain a single cell suspension cell, digested tissues were filtered with a 100 μm cell strainer. Cells were collected by centrifugation at 1000 rpm for five minutes, and the cell pellet was re-suspended in Dulbecco’s modified eagle medium (DMEM) supplemented with 10 % fetal bovine serum (FBS). Cells were subsequently cultured in DMEM containing 0.1 mg/L epidermal growth factor (EGF), 0.1 mg/L insulin-like growth factor (IGF) and 0.1 mg/L beta-estradiol with 10 % FBS in 5 % CO2 at 37 °C. Once cells reached 70 to 80 % confluence, cell culture medium was drained from the flask, and cells were digested with 0.25 % collagenase II until approximately 1/3 of the cells fell to the bottom of the dish by eye using a microscope. Due to their initial shedding, most fibroblasts were eliminated by collagenase digestion. The remaining cells were cultured in 5 % CO2 at 37 °C. To determine purity, cells were analyzed using immunofluorescence of cytokeratin 7 (for ovarian cancer cells) or cytokeratin 19 (for normal ovarian epithelium cells).
Primary ovarian cancer cells were seeded into 96-well plates in sextuplicate at a starting density of 5 × 10^3 cells/well and incubated with ACFP at the concentrations: 0 (as control), 5 × 10^−6, 5 × 10^−5, 5 × 10^−4, 5 × 10^−3, 5 × 10^−2, 5 × 10^−1 and 5 g/L for 24, 48 and 72 h, respectively. Cells treated with paclitaxel at 5 × 10^−4 g/L were included in the same plate as a positive control. Cell viability was later measured using the WST-1 (water-soluble tetrazolium 1) cell viability and cytotoxicity assay kit (Beyotime, Haimen, China) according to the manufacturer’s instructions. The percent viability of cells was calculated using the formula to calculate the cell viability ratio (VR): VR (%) = (the experimental group A450nm value/control group A450nm value) × 100 %. To assess general toxicity of ACFP, viability of normal ovarian cells treated with ACFP was assayed using the same procedure. The effect of ACFP was compared with LfcinB and PGPIPN (the products of Shanghai Sangon Biological Engineering Technology, China). Each experiment was performed in two independent sets.

[2] = test system: primary ovarian cancer cells; assay: Real time PCR of bcl-xl, bax, akt, caspase-3, CDC25C and cyclinB1 mRNA; format: cell-based, human; conditions: increasing concentration, 48 h, 2^-ΔΔCt, β-actin reference, 12 patients
Excerpt: An optimized RT-PCR protocol was employed to analyze the mRNA levels of bcl-xl, bax, akt, caspase-3, CDC25C and cyclinB1. Beta-actin was used as a housekeeping gene. According to primer sequences of bcl-xl, bax, akt, caspase-3, CDC25C, cyclinB1 and β-actin genes retrieved from Primer-Bank, primers were designed with the Primer 5.0 software, which were synthesized by Shanghai Sangon Biological Engineering Technology. These primer sequences are as follows: • bcl-xl forward 5′-[…]-3′, • bcl-xl reverse 5′-[…]-3′; • bax forward 5′-[…]-3′, • bax reverse 5′-[…]-3′; • akt forward 5′-[…]-3′, • akt reverse 5′-[…]-3′; • caspase-3 forward 5′-[…]-3′, • caspase-3 reverse 5′[…]-3′; • CDC25C forward 5′-[…]-3′, • CDC25C reverse 5′-[…]-3′; • cyclinB1 forward 5′-[…]-3′, • cyclinB1 reverse 5′-[…]-3′; • β-actin forward 5′-[…]-3′, • β-actin reverse 5′-[…]-3′.
Primary ovarian cancer cells were harvested after ACFP treatment at different doses and times, respectively. The total RNAs in the primary ovarian cancer cells were extracted according to the Trizol kit manufacturer’s instructions, and the purity and concentration were determined by ultraviolet spectrophotometry. […]
Real time PCR adopts TaKaRa SYBR Green as real time PCR Master Mix in ABI7500 fluorescent real-time PCR instrument. […] Finally, the relative mRNA expression of all samples were calculated using the 2^-ΔΔCt method. […]

[3] = oil (octanol)/water partition coefficient; format: physicochemical; conditions: pH 7, preliminary experiments

CC[C@H](C)[C@@H]1NC(=O)[C@H](CO)NC(=O)[C@@H]2CCCN2C(=O)[C@H](C)NC(=O)CNC(=O)[C@H](CC(C)C)NC(=O)[C@H](CCCCN)NC(=O)[C@H](CCCCN)NC(=O)[C@H](CCSC)NC(=O)[C@H](CCCNC(=N)N)NC(=O)[C@H](Cc2c[nH]c3ccccc23)NC(=O)[C@H](CCC(N)=O)NC(=O)[C@H](Cc2c[nH]c3ccccc23)NC(=O)[C@H](CCCNC(=N)N)NC(=O)[C@H](CCCNC(=N)N)NC(=O)[C@@H](NC(=O)[C@H](CCCCN)NC(=O)[C@@H](N)Cc2ccccc2)CSSC[C@@H](C(=O)N[C@H](C(=O)N[C@@H](CCCNC(=N)N)C(=O)N[C@@H](CCCNC(=N)N)C(=O)N[C@@H](C)C(=O)N[C@@H](Cc2ccccc2)C(=O)NCC(=O)NCC(=O)NCC(=O)NCC(=O)N[C@@H](CO)C(=O)N2CCC[C@H]2C(=O)NCC(=O)N2CCC[C@H]2C(=O)N[C@H](C(=O)N2CCC[C@H]2C(=O)N[C@@H](CC(N)=O)C(=O)O)[C@@H](C)CC)C(C)C)NC(=O)[C@H]([C@@H](C)O)NC1=O [ACFP] (H-FKCRRWQWRMKKLGAPSITCVRRAFGGGGSPGPIPN-OH; disulfide 3-20; N-terminus and C-terminus assumed)
IC50, cell viability ([1]; 24 h): 11.5 mg/L (≈ 2.86 µM)
IC50, cell viability ([1]; 48 h): 1.63 mg/L (≈ 0.406 µM)
IC50, cell viability ([1]; 72 h): 0.388 mg/L (≈ 0.0966 µM)
growth of human primary ovarian cells ([1]; different concentrations, 48 h, in vitro, n=12, Figure S1): decreased growth
mRNA expression of bax and caspase-3 [2]: gradual increase
mRNA expression of bcl-xl, akt, CDC25C and cyclinB1 [2]: gradually decreased
logD [3]: -0.91
